Measured values reported in publication PMC10368966, “Safety and efficacy of AK0529 in respiratory syncytial virus‐infected infant patients: A phase 2 proof‐of‐concept trial” (Influenza and Other Respiratory Viruses, 2023).
Where “and” joins values, the source holds several entries; their conditions need not be identical. Equal values may be shown once. Entries after “also recorded” stand apart in the source; their conditions may differ. Marks after values point to notes of the source that are not given here.

How the values were obtained:
[1] = tested on: laboratory strains of RSV-A and RSV-B; test: Cytopathic effect (CPE) assay using Hep-2 cells; assay type: cell-based, human RSV; details: human respiratory syncytial virus
Protocol: (§1) The EC90 value was determined in the presence of the known plasma protein binding in the CPE assay. […] To achieve a target efficacious concentration in humans, it was expected that a minimum target of 5 × EC90 value, or approximately 40 ng/mL should be attained. To maintain the effectiveness, this target Ctrough level was required to be achieved across the dosing interval.

[2] = Phase 2 study: safety and tolerability (adverse events); assay type: in vivo, human (infants)
Protocol: (§2) Safety and tolerability was evaluated by clinical assessment of safety data, including laboratory data, electrocardiographic data, vital signs, and adverse events (AEs).
Clinical safety and tolerability were assessed on the safety population, comprising all subjects who received ≥1 dose of study drug. Clinical variables were evaluated in the full analysis population, which included all subjects who received a dose of study drug and for whom ≥1 post‐treatment assessment was available. Pharmacokinetic analysis was performed on those subjects in the safety population for whom both pre‐ and post‐dose samples were available.

[3] = parameters: method as in Study AK0529-1001; details: single doses of 100 mg and above ref Study AK0529-1001; cited from earlier work
[4] = Phase 2 study: AST and ALT shift evaluation; assay type: in vivo, human (infants)
Protocol: as §2
In study Part 1, no formal sample size calculation was performed. For Part 2, it was calculated that a sample size of 16 patients in each active treatment group would provide >90% power to detect a 50% reduction (mean ratio of 0.5) in RSV viral load AUC with AK0529 as compared with placebo, using a one‐sided significance level of 0.05, two‐sample equal variance t‐test, and assuming a 0.3 variation coefficient of the placebo for viral load. These assumptions were based on viral challenge models of early treatment in adults.[3] For the transaminase shift analysis, the Chi‐square test and Fisher's exact test were used, as appropriate, to test for differences between active treatment and placebo.

[5] = tested on: clinical RSV isolates (31 A-subtypes and 29 B-subtypes); test: Cytopathic and plaque reduction assays against clinical RSV isolates; assay type: cell-based
Protocol: AK0529 (ziresovir) is a potent, selective, and orally bioavailable RSV F protein inhibitor.[9]
as §1

[6] = parameters: method as in Supporting Information; details: multiple doses up to 300 mg bid ref Supporting Information; cited from earlier work
RSV infection = test: Phase 2 study: Wang Respiratory Score; assay type: in vivo, human (infants); details: for Hodges–Lehmann estimation of between-group difference in Wang Respiratory Score: Part 2, 2 mg/kg vs placebo, 96 h
[7] = tested on: clinical RSV isolates (31 A-subtypes and 29 B-subtypes); parameters: method as in PMID 31194544; details: all clinical RSV isolates (31 A-subtypes and 29 B-subtypes) ref 9; cited from earlier work
[8] = TEAE, preferred term, AK0529 N=49
[9] = TEAE, system organ class, AK0529 N=49
[10] = AK0529 n = 38, worst shift category
[11] = AK0529 n = 39, worst shift category

## Cc1ccc2nc(N3CCS(=O)(=O)c4ccccc4C3)nc(NCC3(N)COC3)c2c1 [AK0529, ziresovir]
[1]; HEp-2, target Ctrough in humans, read-out: 5 × EC90 value (minimum target efficacious concentration)
  minimum target trough concentration (5 × EC90): 0.04 µg/mL
[1]; Hep-2 cells, CPE assay, read-out: EC90 of the RSV-induced reduction of cell viability (average)
  EC90: 5 nM and 0.0022 µg/mL
[2]; AK0529 all doses N = 49
  Subjects with any AEs: 25 (51.0%) n (%)
  Subjects with any TEAEs: 24 (49.0%) n (%)
  Subjects with any TEAEs induced withdrawal: 0 n (%)
  Subjects with any TEAEs leading to death: 0 n (%)
  Subjects with any drug related TEAEs: 3 (6.1%) ^a n (%)
  Subjects with any grade ≥3 TEAEs: 2 (4.1%) ^c n (%)
[2]; AK0529 all doses N = 49, two cases of unrelated pneumonia
  Subjects with any serious TEAEs: 2 (4.1%) ^b n (%)
[2]; AK0529 group 24/49
  patients reporting grade ≥1 TEAEs: 49.0%
[2]; AK0529 group, three subjects
  subjects with Grade 1 TEAE considered drug-related by the investigator: 6%
[2]; AK0529 group, two of 49, none related to drug treatment
  patients experiencing a serious TEAE: 4.1%
[2]; AK0529 groups
  withdrawals or deaths because of TEAEs: No withdrawals or deaths; also recorded: none led to death or withdrawal from the study
[2]; AK0529 groups 2/49
  patients with grade ≥3 treatment-emergent adverse events: 4.1%
[2]; [8]
  Acute tonsillitis: 1 (2.0%) n (%)
  Anemia: 1 (2.0%) n (%)
  Aspartate aminotransferase increased: 3 (6.1%) n (%)
  Candida infection: 1 (2.0%) n (%)
  Conjunctivitis: 1 (2.0%) n (%)
  Constipation: 0 n (%)
  Dermatitis: 1 (2.0%) n (%)
  Dermatitis diaper: 4 (8.2%) n (%)
  Diarrhea: 2 (4.1%) n (%)
  Epistaxis: 2 (4.1%) n (%)
  Erythema of eyelid: 1 (2.0%) n (%)
  Eye pruritus: 0 n (%)
  Flatulence: 1 (2.0%) n (%)
  Gastrointestinal inflammation: 1 (2.0%) n (%)
  Hematochezia: 0 n (%)
  Hepatitis: 2 (4.1%) n (%)
  Hyperkalemia: 2 (4.1%) n (%)
  Hyperphosphatemia: 1 (2.0%) n (%)
  Impaired gastric emptying: 0 n (%)
  Injection site extravasation: 1 (2.0%) n (%)
  Leukocytosis: 1 (2.0%) n (%)
  Metabolic acidosis: 1 (2.0%) n (%)
  Nasopharyngitis: 1 (2.0%) n (%)
  Oral candidiasis: 1 (2.0%) n (%)
  Otitis media acute: 2 (4.1%) n (%)
  Pneumonia: 3 (6.1%) n (%)
  Pyrexia: 1 (2.0%) n (%)
  Rash: 1 (2.0%) n (%)
  Rotavirus test positive: 0 n (%)
  Thrombocytosis: 1 (2.0%) n (%)
  Transaminases increased: 2 (4.1%) n (%)
  Upper respiratory tract infection: 1 (2.0%) n (%)
  Urine ketone body present: 1 (2.0%) n (%)
  Vomiting: 1 (2.0%) n (%)
[2]; [9]
  Blood and lymphatic system disorders: 3 (6.1%) n (%)
  Eye disorders: 1 (2.0%) n (%)
  Gastrointestinal disorders: 5 (10.2%) n (%)
  General disorders and administration site conditions: 1 (2.0%) n (%)
  Hepatobiliary disorders: 2 (4.1%) n (%)
  Infections and infestations: 5 (10.2%) n (%)
  Injury, poisoning and procedural complications: 1 (2.0%) n (%)
  Investigations: 6 (12.2%) n (%)
  Metabolism and nutrition disorders: 4 (8.2%) n (%)
  Respiratory, thoracic and mediastinal disorders: 6 (12.2%) n (%)
  Skin and subcutaneous tissue disorders: 6 (12.2%) n (%)
[2]; hospitalized RSV-infected infant patients
  overall tolerability: well tolerated
[2]; human, in vivo
  Bacterial infection: 0 n (%)
[3]
  mean plasma concentration levels at 12 hours post-dose: > 50 ng/mL
[4]; AK0529 n = 38
  ALT shift: Abnormal CS to abnormal NCS: 0 n (%)
  ALT shift: Abnormal CS to normal: 0 n (%)
  ALT shift: Abnormal NCS to normal: 1 (2.6%) n (%)
  ALT shift: No change: 34 (89.5%) n (%)
[4]; [10]
  ALT shift: Abnormal NCS to abnormal CS: 1 (2.6%) n (%)
  ALT shift: Normal to abnormal CS: 1 (2.6%) n (%)
  ALT shift: Normal to abnormal NCS: 1 (2.6%) n (%)
[4]; AK0529 n = 39
  AST shift: Abnormal CS to abnormal NCS: 1 (2.6%) n (%)
  AST shift: Abnormal CS to normal: 1 (2.6%) n (%)
  AST shift: Abnormal NCS to normal: 2 (5.1%) n (%)
  AST shift: No change: 29 (74.4%) n (%)
[4]; [11]
  AST shift: Abnormal NCS to abnormal CS: 0 n (%)
  AST shift: Normal to abnormal CS: 2 (5.1%) n (%)
  AST shift: Normal to abnormal NCS: 4 (10.3%) n (%)
[4]; vs placebo, Fisher's exact p = 0.516 (ALT), p = 0.644 (AST)
  association between exposure to active drug and deterioration / shifts in transaminase levels (ALT, AST): No statistically significant differences; also recorded: no association was found
[5]
  potency against various RSV clinical isolates compared with laboratory strains: remained the same
[6]
  tolerability: good tolerability
RSV infection; Part 1, single dose, baseline to 24 h, one-sided p = 0.004 combined AK0529 groups vs placebo
  median Wang Respiratory Score change: decreased from baseline to 24 h in a dose‐related manner
RSV infection; Part 2, 2 mg/kg bid, baseline to 96 h, 95% CI −4.51, −2.03, placebo −2.0, one-sided p = 0.031
  median reduction in Wang Respiratory Score from baseline: −4.0
RSV infection; full analysis population, 95% CI −2, 1
  Hodges–Lehmann estimation of between-group difference in Wang Respiratory Score: −1
RSV infection; two cases of bacterial pneumonia excluded, 95% CI −2, 0, p = 0.009
  Hodges–Lehmann estimation of between-group difference in Wang Respiratory Score: −1
RSV infection; post-hoc, 2 mg/kg bid, by Day 5, 8/11 patients, placebo 31%, p 0.0412
  patients achieving disease remission (Wang Respiratory Score ≤1): 73%
[7]
  antiviral activity EC90: nanomolar concentrations
